Assay results reported in paper PMC9917560, “Design, Synthesis and Antimicrobial Evaluation of New N-(1-Hydroxy-1,3-dihydrobenzo[c][1,2]oxaborol-6-yl)(hetero)aryl-2-carboxamides as Potential Inhibitors of Mycobacterial Leucyl-tRNA Synthetase” (International Journal of Molecular Sciences, 2023).
≈ marks a conversion by molar mass, not a printed value. Read-outs that look alike come from different tables or passages of the source.

Key:
[1] = tested on: Aspergillus flavus CCM 8363; assay: Antifungal microdilution broth (EUCAST); assay type: cell-based; details: Aspergillus flavus, CCM8363, read-out: MIC Aspergillus flavus
[2] = tested on: Enterococcus faecalis CCM 4224 (ATCC 29212); assay: Antibacterial microdilution broth (EUCAST); assay type: cell-based; details: read-out: MIC Enterococcus faecalis
[3] = tested on: Klebsiella pneumoniae CCM 4415 (ATCC 10031); assay: Antibacterial microdilution broth (EUCAST); assay type: cell-based; details: Klebsiella pneumoniae, read-out: MIC Klebsiella pneumoniae
[4] = tested on: Mtb MATI (MDR clinical isolate); assay: microbe, parasite or virus in culture; assay type: cell-based; details: Mycobacterium tuberculosis, read-out: MIC Mtb MATI
HepG2 cell line = assay: Cytotoxicity screening, CellTiter 96 assay; details: for IC50: Homo sapiens, HepG2, 24 h, read-out: IC50 HepG2
[5] = tested on: Mycobacterium tuberculosis H37Ra ITM-M006710 (ATCC 9431); assay: Antimycobacterial microdilution (resazurin) vs Mtb H37Ra; assay type: cell-based; details: Middlebrook 7H9, resazurin, recalculated from µg/mL, read-out: MIC Mtb H37Ra
[6] = tested on: methicillin-resistant Staphylococcus aureus subsp. aureus (MRSA) CCM 4750 (ATCC 43300); assay: microbe, parasite or virus in culture; assay type: cell-based; details: read-out: MIC Methicillin-resistant Staphylococcus aureus subsp. aureus
[7] = tested on: Mycobacterium avium DSM 44,156 (ATCC 25291); assay: Antimycobacterial microdilution (resazurin) vs M. avium; assay type: cell-based; details: Mycobacterium avium, Middlebrook 7H9, resazurin; read-out: MIC M. avium
[8] = tested on: Aspergillus fumigatus ATCC 204305; assay: Antifungal microdilution broth (EUCAST); assay type: cell-based; details: Aspergillus fumigatus, ATCC204305, read-out: MIC Aspergillus fumigatus
[9] = tested on: Pseudomonas aeruginosa CCM 3955 (ATCC 27853); assay: Antibacterial microdilution broth (EUCAST); assay type: cell-based; details: read-out: MIC Pseudomonas aeruginosa
[10] = tested on: Mycobacterium tuberculosis H37Rv CNCTC My 331/88 (ATCC 27294); assay: Microplate Alamar Blue assay vs Mtb H37Rv; assay type: cell-based; details: Mycobacterium tuberculosis, pH 6.6, MABA, Middlebrook 7H9 pH 6.6, recalculated from µg/mL; read-out: MIC Mtb H37Rv
[11] = tested on: Candida albicans CCM 8320 (ATCC 24433); assay: Antifungal microdilution broth (EUCAST); assay type: cell-based; details: Candida albicans, read-out: MIC Candida albicans
[12] = tested on: Mtb IZAK (MDR clinical isolate); assay: microbe, parasite or virus in culture; assay type: cell-based; details: Mycobacterium tuberculosis, read-out: MIC Mtb IZAK
[13] = tested on: Candida krusei CCM 8271 (ATCC 6258); assay: Antifungal microdilution broth (EUCAST); assay type: cell-based; details: Pichia kudriavzevii, read-out: MIC Candida krusei
[14] = tested on: Lichtheimia corymbifera CCM 8077; assay: Antifungal microdilution broth (EUCAST); assay type: cell-based; details: Lichtheimia corymbifera, CCM8077, read-out: MIC Lichtheimia corymbifera
[15] = tested on: Staphylococcus epidermidis CCM 4418 (ATCC 12228); assay: Antibacterial microdilution broth (EUCAST); assay type: cell-based; details: read-out: MIC Staphylococcus epidermidis
[16] = tested on: Acinetobacter baumannii DSM 30007 (ATCC 19606); assay: Antibacterial microdilution broth (EUCAST); assay type: cell-based; details: read-out: MIC Acinetobacter baumannii
[17] = tested on: Trichophyton interdigitale CCM 8377 (ATCC 9533); assay: Antifungal microdilution broth (EUCAST); assay type: cell-based; details: Trichophyton interdigitale, read-out: MIC Trichophyton interdigitale
[18] = tested on: Escherichia coli CCM 3954 (ATCC 25922); assay: Antibacterial microdilution broth (EUCAST); assay type: cell-based; details: Escherichia coli, read-out: MIC Escherichia coli
[19] = tested on: Candida tropicalis CCM 8264 (ATCC 750); assay: Antifungal microdilution broth (EUCAST); assay type: cell-based; details: read-out: MIC Candida tropicalis
[20] = tested on: Mycolicibacterium smegmatis DSM 43,465 (ATCC 607); assay: Antimycobacterial microdilution (resazurin) vs M. smegmatis; assay type: cell-based
[21] = tested on: Staphylococcus aureus subsp. aureus CCM 4223 (ATCC 29213); assay: Antibacterial microdilution broth (EUCAST); assay type: cell-based; details: read-out: MIC Staphylococcus aureus subsp. aureus
[22] = tested on: Candida parapsilosis CCM 8260 (ATCC 22019); assay: Antifungal microdilution broth (EUCAST); assay type: cell-based; details: Lodderomyces parapsilosis, read-out: MIC Candida parapsilosis
[23] = tested on: Mycolicibacterium aurum DSM 43,999 (ATCC 23366); assay: Antimycobacterial microdilution (resazurin) vs M. aurum; assay type: cell-based; details: Middlebrook 7H9, resazurin, read-out: MIC M. aurum
[24] = tested on: Mycobacterium kansasii DSM 44,162 (ATCC 12478); assay: Antimycobacterial microdilution (resazurin) vs M. kansasii; assay type: cell-based; details: Middlebrook 7H9, resazurin, read-out: MIC M. kansasii
Mtb laboratory ID IZAK = assay type: cell-based, Mycobacterium tuberculosis; details: strain IZAK; for Susceptibility: CLSI breakpoints 2020
Mtb laboratory ID MATI = assay type: cell-based, Mycobacterium tuberculosis; details: strain MATI; for Concentration: CLSI 2021; for Susceptibility: CLSI breakpoints 2021
[25] = Middlebrook 7H9, resazurin, read-out: MIC M. smeg.

SMILES: O=C(Nc1ccc2c(c1)B(O)OC2)c1ccccn1 [Compound 10, N-(1-hydroxy-1,3-dihydrobenzo[c][1,2]oxaborol-6-yl)picolinamide]
- MIC ([1]; 24h incubation): > 500 µM
- MIC ([1]; 48h incubation): > 500 µM
- MIC ([2]; 24h incubation): > 500 µM
- MIC ([2]; 48h incubation): > 500 µM
- MIC ([3]; 24h incubation): > 500 µM
- MIC ([3]; 48h incubation): > 500 µM
- MIC [4]: 98.4 µM (≈ 25 µg/mL)
- IC50 (HepG2 cell line): > 1000 µM
- MIC [5]: < 62 µM
- MIC ([6]; 24 h): 250 µM (≈ 63.5 µg/mL)
- MIC ([6]; 48 h): 250 µM (≈ 63.5 µg/mL)
- MIC [7]: < 62 µM
- MIC ([8]; 24h incubation): > 500 µM
- MIC ([8]; 48h incubation): > 500 µM
- melting point: 183.7 to 186.1 °C
- MIC ([9]; 24h incubation): > 500 µM
- MIC ([9]; 48h incubation): > 500 µM
- MIC [10]: < 62 µM
- MIC ([11]; 24h incubation): > 500 µM
- MIC ([11]; 48h incubation): > 500 µM
- MIC [12]: 98.4 µM (≈ 25 µg/mL)
- MIC ([13]; 24h incubation): > 500 µM
- MIC ([13]; 48h incubation): > 500 µM
- MIC ([14]; 24h incubation): > 500 µM
- MIC ([14]; 48h incubation): > 500 µM
- MIC ([15]; 24h incubation): 500 µM (≈ 127 µg/mL)
- MIC ([15]; 48h incubation): 500 µM (≈ 127 µg/mL)
- MIC ([16]; 24h incubation): > 500 µM
- MIC ([16]; 48h incubation): > 500 µM
- MIC ([17]; 72h incubation): > 500 µM
- MIC ([17]; 120h incubation): > 500 µM
- MIC ([18]; 24h incubation): > 500 µM
- MIC ([18]; 48h incubation): > 500 µM
- MIC ([19]; 24h incubation): > 500 µM
- MIC ([19]; 48h incubation): > 500 µM
- MIC [20, 25]: < 62 µM
- MIC ([20]; read-out: MIC M. smeg., Middlebrook 7H9, resazurin): 61.5 µM (≈ 15.6 µg/mL)
- MIC ([21]; 24h incubation): 250 µM (≈ 63.5 µg/mL)
- MIC ([21]; 48h incubation): 250 µM (≈ 63.5 µg/mL)
- MIC ([22]; 24h incubation): > 500 µM
- MIC ([22]; 48h incubation): > 500 µM

SMILES: O=C(Nc1ccc2c(c1)B(O)OC2)c1cnc2ccccc2n1 [Compound 17, N-(1-hydroxy-1,3-dihydrobenzo[c][1,2]oxaborol-6-yl)quinoxaline-2-carboxamide]
- MIC [23]: 12.8 µM (≈ 3.91 µg/mL)
- MIC ([1]; 24h incubation): > 500 µM
- MIC ([1]; 48h incubation): > 500 µM
- MIC ([2]; 24h incubation): > 500 µM
- MIC ([2]; 48h incubation): > 500 µM
- MIC ([3]; 24h incubation): > 500 µM
- MIC ([3]; 48h incubation): > 500 µM
- MIC [4]: 41 µM (≈ 12.5 µg/mL)
- IC50 (HepG2 cell line): > 250 µM
- toxicity to HepG2 up to highest tested concentration (HepG2 cell line; tested up to 500 µM (2, 3), 250 µM (12, 17), 100 µM (6, 7, 11) because of solubility): non-toxic
- MIC [5]: > 819 µM
- MIC ([6]; 24 h): > 500 µM
- MIC ([6]; 48 h): > 500 µM
- MIC [7]: 102 µM (≈ 31.3 µg/mL)
- MIC ([8]; 24h incubation): > 500 µM
- MIC ([8]; 48h incubation): > 500 µM
- MIC ([9]; 24h incubation): > 500 µM
- MIC ([9]; 48h incubation): > 500 µM
- MIC [10]: 20.5 µM (≈ 6.25 µg/mL)
- MIC ([11]; 24h incubation): > 500 µM
- MIC ([11]; 48h incubation): > 500 µM
- MIC [12]: 41 µM (≈ 12.5 µg/mL)
- MIC ([13]; 24h incubation): > 500 µM
- MIC ([13]; 48h incubation): > 500 µM
- MIC ([14]; 24h incubation): > 500 µM
- MIC ([14]; 48h incubation): > 500 µM
- MIC ([15]; 24h incubation): > 500 µM
- MIC ([15]; 48h incubation): > 500 µM
- MIC ([16]; 24h incubation): > 500 µM
- MIC ([16]; 48h incubation): > 500 µM
- MIC ([17]; 72h incubation): > 500 µM
- MIC ([17]; 120h incubation): > 500 µM
- MIC ([18]; 24h incubation): > 500 µM
- MIC ([18]; 48h incubation): > 500 µM
- MIC ([19]; 24h incubation): > 500 µM
- MIC ([19]; 48h incubation): > 500 µM
- MIC [20, 25]: 12.8 µM (≈ 3.91 µg/mL)
- MIC [24]: 25.6 µM (≈ 7.81 µg/mL)
- MIC ([21]; 24h incubation): > 500 µM
- MIC ([21]; 48h incubation): > 500 µM
- MIC ([22]; 24h incubation): > 500 µM
- MIC ([22]; 48h incubation): > 500 µM

SMILES: CC[C@@H](CO)NCCN[C@@H](CC)CO [EMB, ethambutol]
- MIC [4]: 7.64 µM (≈ 1.56 µg/mL)
- Concentration (Mtb laboratory ID IZAK; CLSI 2020): 2.45 µM
- Susceptibility (Mtb laboratory ID IZAK): sensitive
- MIC [10]: 1.91 µM (≈ 0.39 µg/mL)
- MIC [12]: 7.64 µM (≈ 1.56 µg/mL)
- Concentration (Mtb laboratory ID MATI): 2.45 µM
- Susceptibility (Mtb laboratory ID MATI): sensitive

SMILES: NNC(=O)c1ccncc1 [INH, isoniazid, reference compound]
- MIC [23]: 28.5 µM (≈ 3.91 µg/mL)
- MIC [4]: > 91.2 µM
- MIC [5]: 3.65 µM (≈ 0.501 µg/mL)
- MIC [7]: 7290 µM (≈ 1000 µg/mL)
- Susceptibility (Mtb laboratory ID IZAK): resistant
- MIC [10]: 2.84 µM (≈ 0.389 µg/mL)
- MIC [12]: 91.2 µM (≈ 12.5 µg/mL)
- Concentration (Mtb laboratory ID MATI): >58.33 µM
- Susceptibility (Mtb laboratory ID MATI): resistant
- MIC [20, 25]: 228 µM (≈ 31.3 µg/mL)
- MIC [24]: 45.6 µM (≈ 6.25 µg/mL)
